According to EP4745132A1 (Technoderma Medicines Inc., priority 2023, dated 2025):

Experiments:
NUAK1 = molecular target: T1, NUAK1 (Homo sapiens, UniProt O60285); test: Enzyme activity inhibition test, kinase activity assay based on P81 filter paper binding hot-spot technique; assay type: biochemical; conditions: final concentration of NUAK1 10 nM; 20 µM CHKtide peptide substrate; 33P-labeled ATP; 2 hours at room temperature; read-out: IC50 (nM) of Test Compounds against NUAK1
T1 sequence (O60285 1-661): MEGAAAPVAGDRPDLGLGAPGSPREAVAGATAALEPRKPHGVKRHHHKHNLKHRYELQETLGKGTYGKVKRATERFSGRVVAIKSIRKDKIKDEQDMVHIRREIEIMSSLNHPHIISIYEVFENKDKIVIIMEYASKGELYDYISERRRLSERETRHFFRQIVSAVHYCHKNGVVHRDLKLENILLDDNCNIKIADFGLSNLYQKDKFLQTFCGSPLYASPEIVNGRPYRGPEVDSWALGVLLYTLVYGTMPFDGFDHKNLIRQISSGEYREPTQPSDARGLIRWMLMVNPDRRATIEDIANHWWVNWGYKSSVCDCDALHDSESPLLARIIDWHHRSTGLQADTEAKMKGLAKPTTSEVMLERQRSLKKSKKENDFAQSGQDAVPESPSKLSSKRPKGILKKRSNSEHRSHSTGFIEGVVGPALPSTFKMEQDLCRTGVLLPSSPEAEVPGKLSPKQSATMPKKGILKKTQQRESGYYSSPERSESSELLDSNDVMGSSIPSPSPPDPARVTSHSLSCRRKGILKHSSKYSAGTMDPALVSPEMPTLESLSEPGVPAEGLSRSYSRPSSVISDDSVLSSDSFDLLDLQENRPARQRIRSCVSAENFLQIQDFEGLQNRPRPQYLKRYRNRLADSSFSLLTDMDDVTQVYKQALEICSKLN
Procedure: (§1) Test Example: Enzyme Activity Inhibition Test of NUAK1/NUAK2 Kinase Inhibitors
(§2) The inhibitory activity of the pyrimidinamine small molecules involved in the present application against NUAK1 and NUAK2 kinases was determined using a kinase activity assay based on the P81 filter paper binding hot-spot technique (Nat Biotechnol. 2011, 29:1039). A brief description is as follows:
(§3) The assay buffer system contained 20 mM Hepes (pH 7.5), 10 mM MgCl2, 1 mM EGTA, 0.01% Brij35 (L23 polyoxyethylene lauryl ether), 0.02 mg/mL BSA (bovine serum albumin), 0.1 mM Na3VO4, 2 mM DTT, and 1% DMSO.
(§4) • 1. A 20 µM substrate solution was prepared with freshly prepared test buffer and CHKtide peptide fragments (Sanchez Y. Science. 1997, 277: 1497-1501) were used as a substrate. • 2. Kinases were added and mixed gently (a final concentration of NUAK1 was 10 nM; and a final concentration of NUAK2 was 50 nM). • 3. Test compounds dissolved in 100% DMSO were each added to the above kinase reaction mixture solution via Acoustic Droplet Ejection (Echo550; nanoliter) and the mixture was incubated for 5 minutes at room temperature. • 4. ^33P-labeled ATP (a ratio of unlabeled ATP to labeled ATP was 25:1 or 2.5:1) was added. • 5. The mixture was incubated for 2 hours at room temperature. • 6. Kinase activity was tested using the P81 filter paper combined with hotspot technology.
(§5) The IC50 values of the test compounds against NUAK1/NUAK2 were calculated according to the above test. For specific results, see Table 1.
(§6) The IC50 values were calculated by using a formula derived from sigmoidal dose-response curve (variable slope): Y = Bottom + (Top−Bottom)/(1+10^(∧)((LogEC50−X)*Slope, [formula] where X is the logarithm of compound concentration, Y is the response (inhibition rate of kinase activity), and Y rises from bottom to top along the sigmoidal curve as the concentration increases. Table 1: IC50 (nM) of Test Compounds of the Present Application against NUAK1/NUAK2

NUAK2 = molecular target: T2, NUAK2 (Homo sapiens, UniProt Q9H093); test: as above; assay type: biochemical; conditions: final concentration of NUAK2 50 nM; 20 µM CHKtide peptide substrate; 33P-labeled ATP; 2 hours at room temperature; read-out: IC50 (nM) of Test Compounds against NUAK2
T2 sequence (Q9H093 1-628): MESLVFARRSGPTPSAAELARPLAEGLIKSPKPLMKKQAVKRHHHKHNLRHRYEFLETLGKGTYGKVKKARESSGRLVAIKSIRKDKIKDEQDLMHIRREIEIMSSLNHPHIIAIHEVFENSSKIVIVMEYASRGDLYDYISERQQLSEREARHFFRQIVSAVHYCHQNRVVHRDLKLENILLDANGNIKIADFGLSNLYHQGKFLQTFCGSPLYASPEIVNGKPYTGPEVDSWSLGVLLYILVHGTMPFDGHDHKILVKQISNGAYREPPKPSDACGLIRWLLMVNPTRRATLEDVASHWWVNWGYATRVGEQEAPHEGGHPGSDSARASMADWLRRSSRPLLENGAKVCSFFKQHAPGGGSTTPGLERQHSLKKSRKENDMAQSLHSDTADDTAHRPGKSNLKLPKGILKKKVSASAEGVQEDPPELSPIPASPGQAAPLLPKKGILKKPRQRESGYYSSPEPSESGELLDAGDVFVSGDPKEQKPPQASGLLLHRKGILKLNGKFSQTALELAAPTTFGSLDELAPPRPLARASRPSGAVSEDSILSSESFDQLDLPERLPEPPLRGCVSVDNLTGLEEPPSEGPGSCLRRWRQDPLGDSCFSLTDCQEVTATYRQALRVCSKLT
Procedure: as §1, §2, §3, §4, §5, §6

| IC50 (NUAK1) | IC50 (NUAK2) | SMILES |
| --- | --- | --- |
| 1.24 nM | 2.76 nM | CC1(NC(=O)[C@@H]2CC2(F)F)CCN(c2nc(Nc3cnn(C4CCNCC4)c3)ncc2Cl)CC1 |
| 71 nM | 29 nM | CC1(NS(=O)(=O)C2CC2)CCN(c2ccnc(Nc3cnn(C4CCNCC4)c3)n2)CC1 [TDM-181137] |
| 30 nM | 15 nM | CC1(NC(=O)[C@@H]2CC2(F)F)CCN(c2ccnc(Nc3cnn(C4CCNCC4)c3)n2)CC1 [TDM-181163] |
| 6 nM | 15 nM | CN1CCN(c2ccc(Nc3nccc(N4CCC(C)(NC(=O)[C@@H]5CC5(F)F)CC4)n3)cc2)CC1 [TDM-181164, (S)-2,2-Difluoro-N-(4-methyl-1-(2-((4-(4-methylpiperazin-1-yl)phenyl)amino)pyrimidin-4-yl)piperidin-4-yl)cyclopropane-1-carboxamide] |
| 39 nM | 72 nM | CN1CCN(c2ccc(Nc3nccc(N4CCC(C)(NS(=O)(=O)C5CC5)CC4)n3)cc2)CC1 [TDM-181165, N-(4-methyl-1-(2-((4-(4-methylpiperazin-1-yl)phenyl)amino)pyrimidin-4-yl)piperidin-4-yl)cyclopropanesulfonamide] |
| 1 nM | 3 nM | CN1CCN(c2ccc(Nc3ncc(Cl)c(N4CCC(C)(NS(=O)(=O)C5CC5)CC4)n3)cc2)CC1 [TDM-181173, N-(1-(5-chloro-2-((4-(4-methylpiperazin-1-yl)phenyl)amino)pyrimidin-4-yl)-4-methylpiperidin-4-yl)cyclopropanesulfonamide] |
| 0.46 nM | 1.44 nM | CN1CCN(c2ccc(Nc3ncc(Cl)c(N4CCC(C)(NC(=O)[C@@H]5CC5(F)F)CC4)n3)cc2)CC1 [TDM-181174, (S)-N-(1-(5-chloro-2-((4-(4-methylpiperazin-1-yl)phenyl)amino)pyrimidin-4-yl)-4-methylpiperidin-4-yl)-2,2-difluorocyclopropanecarboxamide] |
| 20 nM | 13 nM | COc1cc(N2CCN(C)CC2)ccc1Nc1ncc(Cl)c(N2CCC(C)(NS(=O)(=O)C3CC3)CC2)n1 [TDM-181175, N-(1-(5-chloro-2-((2-methoxy-4-(4-methylpiperazin-1-yl)phenyl)amino)pyrimidin-4-yl)4-methylpiperidin-4-yl)cyclopropanesulfonamide] |
| 679 nM |  | CN1CCN(c2ccc(Nc3ncc(Cl)c(CN4CCC(C)(NC(=O)[C@@H]5CC5(F)F)CC4)n3)cc2)CC1 [TDM-181182, (S)-N-(1-((5-chloro-2-((4-(4-methylpiperazin-1-yl)phenyl)amino)pyrimidin-4-yl)methyl)-4-methylpiperidin-4-yl)-2,2-difluorocyclopropane-1-carboxamide] |
| 69 nM |  | CN1CCN(c2ccc(Nc3ncc(Cl)c(CN4CCC(C)(NS(=O)(=O)C5CC5)CC4)n3)cc2)CC1 [TDM-181183, N-(1-((5-chloro-2-((4-(4-methylpiperazin-1-yl)phenyl)amino)pyrimidin-4-yl)methyl)-4-methylpiperidin-4-yl)cyclopropanesulfonamide] |
| 959 nM |  | CC1(NC(=O)[C@@H]2CC2(F)F)CCN(Cc2nc(Nc3cnn(C4CCNCC4)c3)ncc2Cl)CC1 [TDM-181186, (S)-N-(1-((5-chloro-2-((1-(piperidin-4-yl)-1H-pyrazol-4-yl)amino)pyrimidin-4-yl)methyl)-4-methylpiperidin-4-yl)-2,2-difluorocyclopropane-1-carboxamide] |
